Data set [1] has as its system S. aureus ATCC 29213. In words: MIC determination, S. aureus ATCC 29213. To be noted: S. aureus ATCC 29213 MIC screening; active = MIC ≤ 8 μg/mL.
A further data set deals with S. epidermis ATCC 35547. In words: MIC determination, S. epidermis ATCC 35547. The format is cell-based.
The subject of the next data set is HepG2 cells. In words: XTT cytotoxicity assay with HepG2 cells.
The nature of the next data set: Full PK study in mice. To be noted: mouse.
Data set [2] concerns S. aureus ATCC 29213. Briefly: Minimal-bactericidal concentration. To be noted: S. aureus ATCC 29213 (MSSA); MBC = >1000-fold reduction in colonies.
A further data set concerns S. aureus ATCC 27660. To be noted: cited from earlier work.
For data set [3] the following is noted: cited from earlier work.
Data set [4] has as its system S. aureus ATCC 29213. To be noted: S. aureus ATCC 29213, MSSA quality-control strain; cited from earlier work.

In brackets after ≈: the same amount, converted by molar mass. Entries after “also recorded” stand apart in the source; their conditions may differ. Like-named read-outs stand apart in the source and are kept apart here. Marks after values point to notes of the source that are not given here. Some results are limits rather than exact numbers.

In general, MIC refers to the lowest concentration that inhibits growth of the organism. In general, IC50 refers to the point on the concentration scale where inhibition reaches its midpoint. As to `CC(C)Nc1c[nH]nc1-c1nc(-c2ccc(Oc3ccc(C(F)(F)F)cc3)cc2)no1` [65b, N-Isopropyl-3-(3-(4-(4-(trifluoromethyl)phenoxy)phenyl)-1,2,4-oxadiazol-5-yl)-1H-pyrazol-4-amine], in the data set with S. aureus ATCC 29213 [1], the “antibacterial activity (in words)” value is given as “active”. This compound also showed an MIC with S. epidermis ATCC 35547 greater than 128 µg/mL. Further, the half-maximal inhibitory concentration (IC50) in the data set with HepG2 cells (Homo sapiens, HepG2, read-out: XTT HepG2 IC50) was determined as 3.9 ± 0.8 µg/mL (≈ 9.08 µM).

Regarding `FC(F)(F)c1ccc(Oc2ccc(-c3noc(-c4ccc5[nH]ccc5c4)n3)cc2)cc1` [75b, 5-(1H-Indol-5-yl)-3-(4-(4-(trifluoromethyl)phenoxy)phenyl)-1,2,4-oxadiazole], in the data set “Full PK study in mice” (20 mg/kg iv), the “clearance as % of hepatic blood flow” value is “less than 10%” and the t1/2α entry is “t1/2α = 0.54 min”. Also, in the data set “Full PK study in mice” (20 mg/kg po), the t1/2dist entry is “t1/2dist = 15.9 h”. In the data set “Full PK study in mice” (versus compound 1), the “fold higher volume of distribution than 1” value is 13 fold and the “fold lower clearance than 1” value is given as 3 fold. Also, the “MBC relative to MIC” value against S. aureus ATCC 29213 [2] is “the same as the MIC value”. For the same compound, in the data set with HepG2 cells (HepG2 cells, versus compound 1), the “fold less toxic compared to the lead 1 (XTT HepG2)” value came to 5 fold.

As for `COC(=O)c1ccc(-c2nc(-c3ccc(Oc4ccc(F)cc4)cc3)no2)cc1` [90c], the “antibacterial activity (in words)” value in the data set with S. aureus ATCC 29213 [1] was “failed to show activity”.

Consider `O=[N+]([O-])c1cc(-c2nc(-c3ccc(Oc4ccc(F)cc4)cc3)no2)ccc1O` [91c], for which the “antibacterial activity (in words)” value in the data set on S. aureus ATCC 29213 [1] was “failed to show activity; also recorded: abolish activity”.

For the compound `Nc1cc(-c2nc(-c3ccc(Oc4ccc(F)cc4)cc3)no2)ccc1O` [92c], the “antibacterial activity (in words)” value in the data set with S. aureus ATCC 29213 [1] was “failed to show activity”.

On to `COc1cc(-c2nc(-c3ccc(Oc4ccc(C(F)(F)F)cc4)cc3)no2)ccc1O` [93b], for which the “antibacterial activity (in words)” value in the data set on S. aureus ATCC 29213 [1] is “failed to show activity; also recorded: abolish activity”.

Consider `COc1cc(-c2nc(-c3ccc(Oc4ccccc4)cc3)no2)ccc1N` [94a], for which the “antibacterial activity (in words)” value in the data set with S. aureus ATCC 29213 [1] is “abolish activity”.

Take `Oc1cccc(-c2nc(-c3ccc(Oc4ccccc4)cc3)no2)c1` [95a]: in the data set with S. aureus ATCC 29213 [1], the “antibacterial activity (in words)” value is recorded as “failed to show activity”.

Turning to `Oc1cc(-c2nc(-c3ccc(Oc4ccccc4)cc3)no2)ccc1I` [96a], the “antibacterial activity (in words)” value in the data set with S. aureus ATCC 29213 [1] is “failed to show activity”.

For `Oc1ccccc1-c1nc(-c2ccc(Oc3ccccc3)cc2)no1` [97a], the “antibacterial activity (in words)” value in the data set with S. aureus ATCC 29213 [1] is given as “failed to show activity”.

For the compound `FC(F)(F)c1ccc(Oc2ccc(-c3noc(-c4cc[nH]n4)n3)cc2)cc1` [102b], the “antibacterial activity (in words)” value in the data set on S. aureus ATCC 29213 [1] is “No activity”.

With `CCCCNc1c[nH]nc1-c1nc(-c2ccc(Oc3ccc(C(F)(F)F)cc3)cc2)no1` [104b], the “antibacterial activity (in words)” value in the data set on S. aureus ATCC 29213 [1] is on record as “did not extend”.

`CC(C)CNc1c[nH]nc1-c1nc(-c2ccc(Oc3ccc(C(F)(F)F)cc3)cc2)no1` [105b]: the “antibacterial activity (in words)” value with S. aureus ATCC 29213 [1] is recorded as “did not extend”.

On to `FC(F)(F)c1ccc(Oc2ccc(-c3noc(-c4n[nH]cc4NC4CCCCC4)n3)cc2)cc1` [106b], for which the “antibacterial activity (in words)” value in the data set with S. aureus ATCC 29213 [1] was “did not extend”.

Consider `FC(F)(F)c1ccc(Oc2ccc(-c3noc(-c4n[nH]cc4NC4CCCC4)n3)cc2)cc1` [107b], for which, in the data set on S. aureus ATCC 29213 [1], the “antibacterial activity (in words)” value is on record as “did not extend”.

Consider `O=C(Nc1c[nH]nc1-c1nc(-c2ccc(Oc3ccc(C(F)(F)F)cc3)cc2)no1)c1ccccc1` [108b], for which the “antibacterial activity (in words)” value in the data set on S. aureus ATCC 29213 [1] is “did not extend”.

For `O=C(Nc1c[nH]nc1-c1nc(-c2ccc(Oc3ccc(C(F)(F)F)cc3)cc2)no1)c1ccccn1` [109b], the “antibacterial activity (in words)” value in the data set with S. aureus ATCC 29213 [1] is recorded as “did not extend”.

In the case of `O=c1[nH]c(-c2ccc(Oc3ccccc3)cc2)no1` [112a], the “antibacterial activity (in words)” value with S. aureus ATCC 29213 [1] is on record as “abolishes activity”.

For `Cc1nc(-c2ccc(Oc3ccccc3)cc2)no1` [113a], in the data set on S. aureus ATCC 29213 [1], the “antibacterial activity (in words)” value is on record as “abolishes activity”.

As for `c1ccc(Oc2ccc(-c3noc(-c4ccncc4)n3)cc2)cc1` [114a], in the data set with S. aureus ATCC 29213 [1], the “antibacterial activity (in words)” value was “generally abolish antibacterial activity”.

For `[O-][n+]1ccc(-c2nc(-c3ccc(Oc4ccccc4)cc3)no2)cc1` [115a], the “antibacterial activity (in words)” value in the data set on S. aureus ATCC 29213 [1] was “generally abolish antibacterial activity”.

For `FC(F)(F)c1ccc(Oc2ccc(-c3noc(-c4nc[nH]n4)n3)cc2)cc1` [116b], in the data set with S. aureus ATCC 29213 [1], the “antibacterial activity (in words)” value is on record as “generally abolish antibacterial activity”.

Regarding `FC(F)(F)c1ccc(Oc2ccc(-c3noc(-c4cn[nH]n4)n3)cc2)cc1` [117b], in the data set with S. aureus ATCC 29213 [1], the “antibacterial activity (in words)” value is “generally abolish antibacterial activity”.

Consider `CCn1ccc(-c2nc(-c3ccc(Oc4ccc(F)cc4)cc3)no2)n1` [118c], for which the “antibacterial activity (in words)” value in the data set on S. aureus ATCC 29213 [1] is listed as “No activity”.

For the compound `Oc1ccc(-c2nc(-c3ccc(Oc4ccc(C(F)(F)F)cc4)cc3)no2)cn1` [120b], the “antibacterial activity (in words)” value in the data set on S. aureus ATCC 29213 [1] is “No activity”.

In the case of `Nc1cc(-c2nc(-c3ccc(Oc4ccc(C(F)(F)F)cc4)cc3)no2)cnc1O` [121b], the “antibacterial activity (in words)” value in the data set on S. aureus ATCC 29213 [1] was “No activity”.

On to `Nc1cncc(-c2nc(-c3ccc(Oc4ccc(C(F)(F)F)cc4)cc3)no2)c1` [122b], for which, in the data set on S. aureus ATCC 29213 [1], the “antibacterial activity (in words)” value was “No activity”.

As for `Nc1cncc(-c2nc(-c3ccc(Oc4ccc(F)cc4)cc3)no2)c1` [122c], in the data set with S. aureus ATCC 29213 [1], the “antibacterial activity (in words)” value was “No activity”.

As to `FC(F)(F)c1ccc(Oc2ccc(-c3noc(-c4n[nH]c5ccccc45)n3)cc2)cc1` [123b], the “antibacterial activity (in words)” value in the data set on S. aureus ATCC 29213 [1] is reported as “No activity”.

`FC(F)(F)c1ccc(Oc2ccc(-c3noc(-c4c[nH]c5ncccc45)n3)cc2)cc1` [125b]: in the data set on S. aureus ATCC 29213 [1], the “antibacterial activity (in words)” value was “No activity”.

Take `Nc1c[nH]c(-c2nc(-c3ccc(Oc4ccc(F)cc4)cc3)no2)c1` [126c]: the “antibacterial activity (in words)” value in the data set on S. aureus ATCC 29213 [1] is listed as “generally abolish antibacterial activity”.

`Fc1ccc(Oc2ccc(-c3noc(-c4cc[nH]c4)n3)cc2)cc1` [127c]: the “antibacterial activity (in words)” value in the data set with S. aureus ATCC 29213 [1] is “generally abolish antibacterial activity”.

In the case of `Oc1ccc(-c2nc(-c3ccc(Oc4ccc(C(F)(F)F)cc4)cc3)no2)cc1` [compound 1], the ED50 result with S. aureus ATCC 27660 (iv, 2 doses given at 30 min and 7.5 h after infection) is “ED50 = 40 mg/kg^c”; in the data set on S. aureus ATCC 27660 (po, single dose given at 1 h after infection), 44^a mg/kg.

Turning to `CCCCCCCCCC(=O)N[C@@H](Cc1c[nH]c2ccccc12)C(=O)N[C@H](CC(N)=O)C(=O)N[C@@H](CC(=O)O)C(=O)N[C@@H]1C(=O)NCC(=O)N[C@@H](CCCN)C(=O)N[C@@H](CC(=O)O)C(=O)N[C@H](C)C(=O)N[C@@H](CC(=O)O)C(=O)NCC(=O)N[C@H](CO)C(=O)N[C@@H]([C@H](C)CC(=O)O)C(=O)N[C@@H](CC(=O)c2ccccc2N)C(=O)O[C@@H]1C` [daptomycin], the plasma protein binding in data set [3] (plasma) is reported as greater than 91%.

In the case of `CC(=O)NC[C@H]1CN(c2ccc(N3CCOCC3)c(F)c2)C(=O)O1` [linezolid], the MIC in the data set on S. aureus ATCC 29213 [4] was 4 µg/mL (≈ 11.9 µM).

In the case of `Cc1onc(-c2ccccc2)c1C(=O)N[C@@H]1C(=O)N2[C@@H]1SC(C)(C)[C@@H]2C(=O)O` [oxacillin], in data set [3] (plasma), the plasma protein binding is given as greater than 91%.

As to `CO[C@H]1/C=C/O[C@@]2(C)Oc3c(C)c(O)c4c(O)c(c(/C=N/N5CCN(C)CC5)c(O)c4c3C2=O)NC(=O)/C(C)=C\C=C\[C@H](C)[C@H](O)[C@@H](C)[C@@H](O)[C@@H](C)[C@H](OC(C)=O)[C@@H]1C` [rifampicin], in data set [3] (antibiotics on the market), the plasma protein binding is greater than 91%.

Turning to teicoplanin, the plasma protein binding in data set [3] (plasma) is given as greater than 91%.

The record behind these values is publication PMC6863074 (Journal of medicinal chemistry, 2015).
